Test system: human peripheral blood cells (lymphocytes)
Test: γδT lymphocyte proliferation induction, BrdU labeling after 3 days of culture
Type: cell-based
Parameters: key to cytotoxicity: *: cytotoxicity
Details: 3 days culture; for % stimulation relative to the control: BrdU
Method: The γδT lymphocyte proliferation-inducing activity is tested in the following way: human peripheral blood cells are cultured in the presence of an RPMI-type culture medium supplemented with L-glutamine (2 mM), penicillin/streptomycin (50 μg/50 IU/ml) and foetal calf serum (10%). The C-glycoside derivatives 1 and 2 are added at various concentrations (10 to 0.05 mM), along with phytohemagglutin (PHA at […]), a positive control for total lymphocyte proliferation.

| Structure (SMILES) | % stimulation relative to the control (0.05 mM) [%] | % stimulation relative to the control (0.1 mM) [%] | % stimulation relative to the control (0.5 mM) [%] | % stimulation relative to the control (1 mM) [%] | cytotoxicity (5 mM) | % stimulation relative to the control (5 mM) [%] | cytotoxicity (10 mM) | % stimulation relative to the control (10 mM) [%] |
| --- | --- | --- | --- | --- | --- | --- | --- | --- |
| CC(=O)C[C@@H]1OC[C@@H](O)[C@H](O)[C@H]1O [Compound 1, 1-(C-β-D-xylopyranosyl)propan-2-one] | 108 | 115 | 84 | 131 | * | 106 | * | 74 |
| CC(=O)C[C@@H]1O[C@H](CO)[C@@H](O)[C@H](O)[C@H]1O [Compound 2, 1-(C-β-D-glucopyranosyl)propan-2-one] | 64 | 76 | 90 | 123 |  | 227 |  | 224 |
